The results in this text go back to publication PMC8998611, “Identification of Novel GSK-3β Hits Using Competitive Biophysical Assays” (International Journal of Molecular Sciences, 2022).

For assay [1], the target named is T1, GSK-3β (Homo sapiens, UniProt P49841). Kind of assay: 19F T2 filter NMR ligand-based binding experiments. Conditions: in presence of GSK-3β and 1 mM or 3 mM AMP-PNP. Also on record: made in house; host or cells: Sf9 cells. As for the experimental part:
GSK-3β was pre-incubated at room temperature for 10 min in the presence of 1 mM AMP-PNP before addition to the mixtures. […] On the contrary, NMR signals of the non-binding molecules were not affected by the presence of the target protein. Molecules selected from this first NMR screening were then tested as a single compound under the same screening conditions in the presence of two non-binding compounds as negative controls. The promising compounds, still showing binding to GSK-3β when tested as singles, were retested also in the presence of 3 mM AMP-PNP (among these, G5 and G12, whose NMR spectra are reported in Figure 2a,b, respectively). […] These hits were then further analyzed and characterized through different biophysical approaches.
All NMR screening experiments were recorded at 298 K with a Bruker FT NMR Avance III 600 MHz spectrometer, equipped with a 5 mm CryoProbe™ QCI ^1H/^19F–^13C/^15N–D with an automatic sample changer SampleJet™ with temperature control. All GSK-3β experiments were performed at low enzyme concentration (750 nM/1 μM) in 60 mM Hepes pH 7.5, 25 mM NaCl, 10 mM MgCl2, 2 mM TCEP, 8% D2O (for lock signal), 0.003% Triton X-100 (for the coating of NMR tube wall). […]

For assay [2], the target named is T1, GSK-3β. Kind of assay: GSK-3β kinetics, Lineweaver-Burk analysis of competition with ATP or substrate ULight-GS. Type of assay: biochemical. Details: made in house; host or cells: Sf9 cells. Conditions: compound 20 and 50 μM; for mechanism of inhibition with respect to substrate ULight-GS: ATP 1 μM, ULight-GS 12.5-200 nM; for mechanism of inhibition with respect to ATP: ATP 0.25-4 μM, ULight-GS 50 nM. On the procedure:
First, under a constant concentration of the substrate ULight-GS (50 nM), ATP concentrations were varied from 0.25 to 4 μM, and G5 and G12 were tested at 20 and 50 μM. […] Additionally, G5 and G12 (at 20 and 50 μM) were tested by keeping the ATP concentration constant (1 μM) and varying the substrate ULight-GS concentration from 12.5 to 200 nM.
To study the GSK-3β kinetics, the reaction mixture, varying concentrations of ATP (0.25–0.5–1–2–4 μM) or substrate (12.5–25–50–100–200 nM) versus test samples (20 and 50 μM), were incubated for 5, 15, 30, and 60 min at 23 °C, followed by the addition of the 6 mM EDTA and the anti-phospho-GS antibody according to the manufacturer’s protocol.
For GSK-3β kinetic experiments, initial velocities (V0) were determined and fitted to the Michaelis–Menten equation. To directly visualize G5 and G12 inhibition mode, a Lineweaver–Burk plot was generated according to the values obtained from the Michaelis–Menten analysis. […] Graphs and data analysis were performed using GraphPad Prism 8 software.

The target in assay [3] is T1, GSK-3β. Briefly: LANCE Ultra TR-FRET GSK-3β kinase inhibition assay (ULight-GS phosphorylation). The class given is biochemical. To be noted: 1 µM ATP, 50 nM ULight-GS; for inhibition at 1 µM: 1 μM compound; for inhibition at 1 µM / inhibition at 5 µM / inhibition at 50 µM / inhibition at 100 µM: mean ± SD; for inhibition at 5 µM: 5 μM compound; for inhibition at 50 µM: 50 μM compound; for inhibition at 100 µM: 100 μM compound; for IC50: dose-response 30 nM to 200 μM. As for the experimental part: To assess if the identified GSK-3β binders were also able to affect kinase activity, the inhibitory activity of the four identified hit compounds was tested at four concentrations (1-5-50-100 μM) using the LANCE® Ultra (Perkin Elmer, Waltham, MA, USA) time-resolved fluorescence resonance energy transfer (TR-FRET) assay. The assay measures the ability of GSK-3β to phosphorylate a specific substrate, human Muscle Glycogen Synthase (ULight-GS ([…]/pSer657)), in the presence and absence of the identified ligands. […] Specifically, IC50 values were (14.81 ± 0.55) μM and (15.25 ± 1.34) μ[…] and G12, respectively (Figure 5). The GSK-3β kinase assay was run in 384 well microplates (OptiPlate^TM-384, White, Perkin Elmer) with a total reaction volume of 20 μL. The inhibitory potency against human recombinant GSK-3β was evaluated using the LANCE® Ultra (Perkin Elmer) time-resolved fluorescence resonance energy transfer (TR-FRET) by measuring the phosphorylation of the specific substrate, human Muscle Glycogen Synthase (ULight-GS ([…]/pSer657)), according to the manufacturer's instructions. […] The reaction was initiated by adding 50 nM of the substrate ULight-[…] and 1 μM ATP. The mixture was incubated for 1 h at 23 °C. Afterward, the reaction was stopped by adding 8 mM EDTA. After 5 min, the anti-phospho-GS antibody labeled with europium chelate was added. 1 h later, the kinase reaction was monitored by irradiation at 320 nm, and the fluorescence was measured at 615 and 665 nm, using EnVision 2014 Multilabel Reader (PerkinElmer). The calculated signal ratio at 665/615 nm was proportional to the extent of ULight-GS phosphorylation. The compounds were screened at four concentrations (1-5-50-100 μM). For selected compounds, dose-response curves, ranging from 30 nM up to 200 μM, were performed. Dose-response curves were run in three independent experiments, each performed in three technical replicates. IC50 values (concentrations causing half-maximal response or enzyme inhibition) were determined by non-linear regression analysis of the Log [concentration]/response curves generated with mean replicate values using a four parameter Hill equation curve fitting with GraphPad Prism 8 (GraphPad Software Inc., San Diego, CA, USA).

T1 sequence (P49841 whole entry): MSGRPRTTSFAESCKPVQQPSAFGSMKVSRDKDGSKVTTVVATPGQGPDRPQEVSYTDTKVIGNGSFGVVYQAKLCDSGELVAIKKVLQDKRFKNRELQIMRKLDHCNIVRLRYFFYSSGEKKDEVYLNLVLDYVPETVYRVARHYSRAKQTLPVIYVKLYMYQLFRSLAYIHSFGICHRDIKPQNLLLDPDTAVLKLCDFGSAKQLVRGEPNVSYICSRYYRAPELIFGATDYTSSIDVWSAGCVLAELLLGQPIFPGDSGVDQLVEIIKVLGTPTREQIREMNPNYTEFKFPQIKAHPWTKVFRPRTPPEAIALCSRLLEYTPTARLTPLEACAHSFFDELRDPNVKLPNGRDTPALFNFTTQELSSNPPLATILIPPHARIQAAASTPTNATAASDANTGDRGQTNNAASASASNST

A word on the inhibition: it is the share of the control response that was lost under treatment. Read a low inhibition as little suppression. The term IC50 denotes the concentration that gives 50% inhibition. Higher therefore signals a need for much substance. As for `CS(=O)(=O)N1CC(c2nc(N)ncc2-c2ccc(F)cc2)C1` [G5], at GSK-3β [1], the “binding by 19F T2 filter NMR (line broadening of signal)” value is recorded as “strong line broadening”. On GSK-3β [2], the “mechanism of inhibition with respect to substrate ULight-GS” value is on record as “mixed competition mechanism” and the “mechanism of inhibition with respect to ATP” value is given as “ATP competitive”. Further, at GSK-3β [3], the inhibition at 1 µM was 0.3 ± 0.1%, 5 µM produced 13.4 ± 2% inhibition, the inhibition at 50 µM turned out to be 69.4 ± 2% and the inhibition at 100 µM is > 80%. Moreover, it took 14.8 ± 0.55 µM to reach half-maximal inhibition against GSK-3β [3] (IC50).
`O=C(Nc1ccccn1)C1CCN(C(=O)CCc2ccccc2F)C1` (stereo not shown) [G12]: the “binding by 19F T2 filter NMR (line broadening of signal)” value on GSK-3β [1] is “strong line broadening”. Also, on GSK-3β [2], the “mechanism of inhibition with respect to substrate ULight-GS” value is reported as “did not compete with the substrate” and the “mechanism of inhibition with respect to ATP” value is given as “ATP competitive”. For the same molecule, on GSK-3β [3], at 1 µM the inhibition was 8.5 ± 0.1%, the inhibition at 5 µM is 15.2 ± 2.7%, the inhibition at 50 µM came out at 71.4 ± 1.7% and the inhibition at 100 µM is > 80%. Besides, at GSK-3β [3], half-maximal inhibition (IC50) was put at 15.2 ± 1.34 µM.
